Measured values taken from patent US20120157452A1, “1H-PYRAZOLO[3,4-B] PYRIDINE COMPOUNDS FOR INHIBITING RAF KINASE” (GENENTECH, INC., priority 2009, published 2012).

Target: T1, V600E full-length B-Raf (Homo sapiens, UniProt P15056, V600E)
T1 construct: made in house; host or cells: Sf9 insect cells (baculovirus)
Assay: B-Raf IC50 assay: incorporation of radio labeled phosphate from [γ-33P]ATP into FSBA-modified wild-type MEK
Format: biochemical
Text: Determining the activity of Raf in the sample is possible by a number of direct and indirect detection methods (US 2004/0082014). Activity of human recombinant B-Raf protein may be assessed in vitro by assay of the incorporation of radio labeled phosphate to recombinant MAP kinase (MEK), a known physiologic substrate of B-Raf, according to US 2004/0127496 and WO 03/022840. The activity/inhibition of V600E full-length B-Raf was estimated by measuring the incorporation of radio labeled phosphate from [γ-^33]ATP into FSBA-modified wild-type MEK (see Biological Example 1).
Activity of human recombinant B-Raf protein may be assessed in vitro by assay of the incorporation of radio labeled phosphate to recombinant MAP kinase (MEK), a known physiologic substrate of B-Raf, according to US 2004/0127496 and WO 03/022840. Catalytically active human recombinant B-Raf protein is obtained by purification from sf9 insect cells infected with a human B-Raf recombinant baculovirus expression vector.
The activity/inhibition of V600E full-length B-Raf was estimated by measuring the incorporation of radio labeled phosphate from [γ-^33]ATP into FSBA-modified wild-type MEK. The 30-μL, assay mixtures contained 25 mM Na Pipes, pH 7.2, 100 mM KCl, 10 mM MgCl2, 5 mM β-glycerophosphate, 100 μM Na Vanadate, 4 μM ATP, 500 nCi [γ-^33P]ATP, 1 μM FSBA-MEK and 20 nM V600E full-length B-Raf. Incubations were carried out at 22° C. in a Costar 3365 plate (Corning). Prior to the assay, the B-Raf and FSBA-MEK were preincubated together in assay buffer at 1.5× (20 μL of 30 nM and 1.5 μM, respectively) for 15 minutes, and the assay was initiated by the addition of 10 μL of […]. Following the 60-minute incubation, the assay mixtures were quenched by the addition of 100 μL of 25% TCA, the plate was mixed on a rotary shaker for 1 minute, and the product was captured on a Perkin-Elmer GF/B filter plate using a Tomtec Mach III Harvester. After sealing the bottom of the plate, 35 μL of Bio-Safe II (Research Products International) scintillation cocktail were added to each well and the plate was top-sealed and counted in a Topcount NXT (Packard).

[1] = 4 μM ATP, 60-minute incubation, representative data of multiple tests

T1 sequence (P15056 whole entry V600E): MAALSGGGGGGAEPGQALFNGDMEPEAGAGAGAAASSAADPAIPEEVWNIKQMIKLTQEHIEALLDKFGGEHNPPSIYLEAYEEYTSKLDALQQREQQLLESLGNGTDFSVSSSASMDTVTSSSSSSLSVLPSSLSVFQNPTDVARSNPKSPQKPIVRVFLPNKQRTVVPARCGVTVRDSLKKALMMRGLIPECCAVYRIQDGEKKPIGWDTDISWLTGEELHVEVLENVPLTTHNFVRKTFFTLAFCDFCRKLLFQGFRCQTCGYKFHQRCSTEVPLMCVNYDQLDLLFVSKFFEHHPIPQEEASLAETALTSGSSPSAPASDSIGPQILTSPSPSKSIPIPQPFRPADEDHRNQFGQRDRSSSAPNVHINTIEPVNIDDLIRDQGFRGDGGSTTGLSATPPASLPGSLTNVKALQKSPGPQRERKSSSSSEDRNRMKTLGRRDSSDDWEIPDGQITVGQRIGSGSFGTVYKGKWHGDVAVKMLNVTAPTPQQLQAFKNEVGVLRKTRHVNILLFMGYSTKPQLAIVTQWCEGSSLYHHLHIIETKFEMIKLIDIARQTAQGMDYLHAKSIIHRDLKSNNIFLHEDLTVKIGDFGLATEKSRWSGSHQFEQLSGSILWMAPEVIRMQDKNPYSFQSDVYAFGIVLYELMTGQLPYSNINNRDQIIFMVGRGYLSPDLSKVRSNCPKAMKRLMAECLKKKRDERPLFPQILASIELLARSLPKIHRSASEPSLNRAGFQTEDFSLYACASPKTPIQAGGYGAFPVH

IC50 [1] [nM] | IC50 (bound stated) [nM] | Compound
429 | < 500 | COc1n[nH]c2ncc(NC(=O)c3cccc(OCc4ccccc4)c3)cc12 [Example 1, 3-(benzyloxy)-N-(3-methoxy-1H-pyrazolo[3,4-b]pyridin-5-yl)benzamide]
55.8 | < 100 | COc1n[nH]c2ncc(NC(=O)c3cc(OCc4ccccc4)ccc3F)cc12 [Example 2, 5-(benzyloxy)-2-fluoro-N-(3-methoxy-1H-pyrazolo[3,4-b]pyridin-5-yl)benzamide]
0.44 | < 100 | COc1n[nH]c2ncc(NC(=O)c3c(Cl)ccc(OCc4ccccc4F)c3F)cc12 [Example 3, 6-chloro-2-fluoro-3-(2-fluorobenzyloxy)-N-(3-methoxy-1H-pyrazolo[3,4-b]pyridin-5-yl)benzamide]
0.62 | < 100 | COc1n[nH]c2ncc(NC(=O)c3c(Cl)ccc(OCc4ccccc4)c3F)cc12 [Example 4, 3-(benzyloxy)-6-chloro-2-fluoro-N-(3-methoxy-1H-pyrazolo[3,4-b]pyridin-5-yl)benzamide]
1.06 | < 100 | COc1n[nH]c2ncc(NC(=O)c3c(C)ccc(OCc4ccccc4)c3F)cc12 [Example 5, 3-(benzyloxy)-2-fluoro-N-(3-methoxy-1H-pyrazolo[3,4-b]pyridin-5-yl)-6-methylbenzamide]
2.52 | < 100 | CCc1n[nH]c2ncc(NC(=O)c3c(Cl)ccc(OCc4ccccc4)c3F)cc12 [Example 6, 3-(benzyloxy)-6-chloro-N-(3-ethyl-1H-pyrazolo[3,4-b]pyridin-5-yl)-2-fluorobenzamide]
4.76 | < 100 | CN(C)c1n[nH]c2ncc(NC(=O)c3c(Cl)ccc(OCc4ccccc4)c3F)cc12 [Example 7, 3-(benzyloxy)-6-chloro-N-(3-(dimethylamino)-1H-pyrazolo[3,4-b]pyridin-5-yl)-2-fluorobenzamide]
5.83 | < 100 | O=C(Nc1cnc2[nH]nc(C(F)(F)F)c2c1)c1c(Cl)ccc(OCc2ccccc2)c1F [Example 8, 3-(benzyloxy)-6-chloro-2-fluoro-N-(3-(trifluoromethyl)-1H-pyrazolo[3,4-b]pyridin-5-yl)benzamide]
1.17 | < 100 | O=C(Nc1cnc2[nH]nc(-c3ccco3)c2c1)c1c(Cl)ccc(OCc2ccccc2)c1F [Example 9, 3-(benzyloxy)-6-chloro-2-fluoro-N-(3-(furan-2-yl)-1H-pyrazolo[3,4-b]pyridin-5-yl)benzamide]
2.29 | < 100 | CC(C)c1n[nH]c2ncc(NC(=O)c3c(Cl)ccc(OCc4ccccc4)c3F)cc12 [Example 10, 3-(benzyloxy)-6-chloro-2-fluoro-N-(3-isopropyl-1H-pyrazolo[3,4-b]pyridin-5-yl)benzamide]
7.03 | < 100 | CNc1n[nH]c2ncc(NC(=O)c3c(Cl)ccc(OCc4ccccc4)c3F)cc12 [Example 11, 3-benzyloxy-6-chloro-2-fluoro-N-(3-(methylamino)-1H-pyrazolo[3,4-b]pyridin-5-yl)benzamide]
1.85 | < 100 | CSc1n[nH]c2ncc(NC(=O)c3c(Cl)ccc(OCc4ccccc4)c3F)cc12 [Example 12, 3-(benzyloxy)-6-chloro-2-fluoro-N-(3-(methylthio)-1H-pyrazolo[3,4-b]pyridin-5-yl)benzamide]
1.91 | < 100 | COCCOc1n[nH]c2ncc(NC(=O)c3c(Cl)ccc(OCc4ccccc4)c3F)cc12 [Example 13, 3-(benzyloxy)-6-chloro-2-fluoro-N-(3-(2-methoxyethoxy)-1H-pyrazolo[3,4-b]pyridin-5-yl)benzamide]
0.93 | < 100 | CCOc1n[nH]c2ncc(NC(=O)c3c(Cl)ccc(OCc4ccccc4)c3F)cc12 [Example 14, 3-(benzyloxy)-6-chloro-N-(3-ethoxy-1H-pyrazolo[3,4-b]pyridin-5-yl)-2-fluorobenzamide]
2.63 | < 100 | O=C(Nc1cnc2[nH]nc(OCCO)c2c1)c1c(Cl)ccc(OCc2ccccc2)c1F [Example 15, 3-(benzyloxy)-6-chloro-2-fluoro-N-(3-(2-hydroxyethoxy)-1H-pyrazolo[3,4-b]pyridine-5-yl)benzamide]
1.71 | < 100 | CC(C)Oc1n[nH]c2ncc(NC(=O)c3c(Cl)ccc(OCc4ccccc4)c3F)cc12 [Example 16, 3-(benzyloxy)-6-chloro-2-fluoro-N-(3-isopropoxy-1H-pyrazolo[3,4-b]pyridin-5-yl)benzamide]
11.1 | < 100 | CN(C)CCOc1n[nH]c2ncc(NC(=O)c3c(Cl)ccc(OCc4ccccc4)c3F)cc12 [Example 17, 3-(benzyloxy)-6-chloro-N-(3-(2-(dimethylamino)ethoxy)-1H-pyrazolo[3,4-b]pyridin-5-yl)-2-fluorobenzamide]
0.82 | < 100 | O=C(Nc1cnc2[nH]nc(OCCF)c2c1)c1c(Cl)ccc(OCc2ccccc2)c1F [Example 18, 3-(benzyloxy)-6-chloro-2-fluoro-N-(3-(2-fluoroethoxy)-1H-pyrazolo[3,4-b]pyridine-5-yl)benzamide]
2.04 | < 100 | COc1n[nH]c2ncc(NC(=O)c3c(Cl)ccc(OCc4ccc(C(F)(F)F)cc4)c3F)cc12 [Example 19, 6-chloro-2-fluoro-N-(3-methoxy-1H-pyrazolo[3,4-b]pyridin-5-yl)-3-(4-(trifluoromethyl)benzyloxy)benzamide]
3.48 | < 100 | CC1(c2n[nH]c3ncc(NC(=O)c4c(Cl)ccc(OCc5ccccc5)c4F)cc23)CC1 [Example 20, 3-(benzyloxy)-6-chloro-2-fluoro-N-(3-(1-methylcyclopropyl)-1H-pyrazolo[3,4-b]pyridin-5-yl)benzamide]
72.4 | < 100 | COc1n[nH]c2ncc(NC(=O)c3cccc(OCc4ccccc4)c3Cl)cc12 [Example 21, 3-(benzyloxy)-2-chloro-N-(3-methoxy-1H-pyrazolo[3,4-b]pyridin-5-yl)benzamide]
585 |  | COc1n[nH]c2ncc(NC(=O)c3cccc(OCc4ccccc4)c3C)cc12 [Example 22, 3-(benzyloxy)-N-(3-methoxy-1H-pyrazolo[3,4-b]yridine-5-yl)-2-methylbenzamide]
4 | < 100 | COc1n[nH]c2ncc(NC(=O)c3cc(OCc4ccccc4)ccc3Cl)cc12 [Example 23, 5-(benzyloxy)-2-chloro-N-(3-methoxy-1H-pyrazolo[3,4-b]pyridin-5-yl)benzamide]
64.9 | < 100 | COc1n[nH]c2ncc(NC(=O)c3cc(OCc4ccccn4)ccc3Cl)cc12 [Example 24, 2-chloro-N-(3-methoxy-1H-pyrazolo[3,4-b]pyridin-5-yl)-5-(pyridin-2-ylmethoxy)benzamide]
12.3 | < 100 | COc1n[nH]c2ncc(NC(=O)c3c(Cl)ccc(OCc4ccccc4)c3Cl)cc12 [Example 25, 3-(benzyloxy)-2,6-dichloro-N-(3-methoxy-1H-pyrazolo[3,4-b]pyridin-5-yl)benzamide]
2.41 | < 100 | COc1n[nH]c2ncc(NC(=O)c3c(F)ccc(OCc4ccccc4)c3F)cc12 [Example 26, 3-(benzyloxy)-2,6-difluoro-N-(3-methoxy-1H-pyrazolo[3,4-b]pyridin-5-yl)benzamide]
2.95 | < 100 | COc1n[nH]c2ncc(NC(=O)c3cc(OCc4ccccc4)ccc3C)cc12 [Example 27, 5-(benzyloxy)-N-(3-methoxy-1H-pyrazolo[3,4-b]pyridin-5-yl)-2-methylbenzamide]
0.84 | < 100 | COc1n[nH]c2ncc(NC(=O)c3c(Cl)ccc(OCc4cccc(F)c4)c3F)cc12 [Example 28, 6-chloro-2-fluoro-3-(3-fluorobenzyloxy)-N-(3-methoxy-1H-pyrazolo[3,4-b]pyridin-5-yl)benzamide]
0.65 | < 100 | COc1n[nH]c2ncc(NC(=O)c3c(Cl)ccc(OCc4ccc(F)cc4)c3F)cc12 [Example 29, 6-chloro-2-fluoro-3-(4-fluorobenzyloxy)-N-(3-methoxy-1H-pyrazolo[3,4-b]pyridin-5-yl)benzamide]
0.56 | < 100 | COc1n[nH]c2ncc(NC(=O)c3c(Cl)ccc(OCc4ccc(C)cc4)c3F)cc12 [Example 31, 6-chloro-2-fluoro-N-(3-methoxy-1H-pyrazolo[3,4-b]pyridin-5-yl)-3-(4-methyl-benzyloxy)benzamide]
